# Reference: patent US20250064948A1, “GCPII INHIBITION FOR THE TREATMENT OF SARCOPENIA AND AGING” (The Johns Hopkins University, priority 2022, published 2025)
# What was measured:
# aged C57BL6/J mice [1] = assay: 2-PMPA treatment of aged C57BL6/J mice: muscle function, muscle mass, frailty, survival, plasma cytokines; type: in vivo
# Protocol: To determine whether 2-PMPA treatment could delay muscle function loss in aged animals, 15-month old C57BL6/J mice were treated with 100 mg/kg of 2-PMPA IP daily for 5 months and monthly body weight, grip strength, compound muscle action potential (CMAP), open field behavior, end stage muscle weights and survival were monitored.
# After 5 months of treatment, 2-PMPA treated animals were moving more in the open field apparatus.
# aged C57BL6/J mice [2] = assay: as above; type: in vivo; conditions: 15-month old WT mice, 100 mg/kg, 5 days per week for 5 months, vs vehicle
# [3] = 20 weeks of 2-PMPA treatment, plasma
structure (smiles),measurement,setting,value
"O=C(O)CCC(CP(=O)(O)O)C(=O)O (stereo not shown) [Compound 2-PMPA, 2-(phosphonomethyl) pentanedioic acid]",calf muscle area measured by MRI,"aged C57BL6/J mice [1]; 2 months on treatment, vs vehicle treated mice",significantly greater
same,gastrocnemius muscle weights,"aged C57BL6/J mice [1]; 5 months of treatment, vs vehicle treated mice",significantly increased
same,survival after 5 months of treatment,"aged C57BL6/J mice [1]; 15-month old C57BL6/J mice, 100 mg/kg 2-PMPA IP, 5 months, vehicle 8%",58%
same,median survival exceeding the vehicle mice,"aged C57BL6/J mice [1]; 15-month old C57BL6/J mice, 100 mg/kg 2-PMPA, vs vehicle",106 days
same,plasma IFN-gamma,aged C57BL6/J mice [1]; [3],reduced
same,plasma IL-1beta,aged C57BL6/J mice [1]; [3],reduced
same,plasma TNF-alpha,aged C57BL6/J mice [1]; [3],reduced
same,frailty index scores,"aged C57BL6/J mice [1]; after 5 months of treatment, vs vehicle-treated mice",significantly reduced
same,body weight loss,"aged C57BL6/J mice [1]; after 5 months on 2-PMPA therapy, vs vehicle treated mice",significant delay
same,gastrocnemius muscle fiber cross sectional area (CSA),aged C57BL6/J mice [1]; old mice treated with 2-PMPA vs vehicle treated old mice,significantly larger
same,compound muscle action potential (CMAP) in the foot muscles,aged C57BL6/J mice [2],significantly improved
same,grip strength,aged C57BL6/J mice [2],significantly improved
same,movement in open field,aged C57BL6/J mice [2],significantly improved
